Data from patent US5279824A, “Pharmaceutical formulation containing heparin and endo-beta-glucuronidase, useful for the treatment of thrombosis” (Merck Patent GmbH, priority 1988, dated 1994).

Tests used:
leech hyaluronidase [1] = experiment: Reducing sugar assay of leech hyaluronidase preincubated with heparin; format: biochemical; details: heparin up to 2500 USP/ml; preincubated one hour at 25° C.; enzyme 68 IU/ml; FIG. 1
Protocol: (§1) Leech hyaluronidase (68 IU/ml was preincubated for one hour at 25° C. in the presence of concentrations of heparin (0-2500 USP/1 ml) in 20 mM methanesulphonic acid (MES), 0.1M NaCl, pH 5.0 buffer and then added to hyaluronic acid (5 mg/ml) and the incubation continued for one hour at 37° C. The generation of reducing sugars was determined by terminating the reactions by the addition of 1:1 3,5-dinitrosalicylic acid reagent (100 ml: 5% w/v dinitrosalicylic acid in 2M NaOH plus 250 ml: 60% w/v sodium potassium tartrate in water, made up to 500 ml with water) and heating for 5 min in vigorously boiling water. After heating, assay tubes were rapidly cooled to ambient temperature and absorbances at 540 nm measured spectrophotometrically. Suitable blanks and no-enzyme controls were included in the assay. The results are expressed as a percentage of the absorbances obtained in control incubations containing no heparin.

[2] = system: mammalian testicular hyaluronidase; experiment: Reducing sugar assay of mammalian testicular hyaluronidase preincubated with heparin; format: biochemical; details: heparin above 3 USP/ml; MTH 75 IU/ml; preincubated one hour at 25° C.
Protocol: as §1, with “heparin. […] MTH (75 IU/ml) was preincubated for one hour at 25° C. with heparin (0 to 250 USP/ml) in 20 mM MES, 0.1M NaCl pH 5.0, buffer and then added (1:10 final dilution) to hyaluronate and incubated for a further one hour at 37° C. Activity was determined using the reducing sugar assay (described above) and is expressed as a percentage of controls without heparin. […]” for “heparin.”

whole blood = experiment: Whole blood clotting time after incubation of heparin with or without leech hyaluronidase
Protocol: Heparin (0-150 USP/ml) was incubated for one hour at […] either with or without leech hyaluronidase (50 IU/ml) and in 20 mM MES, 0.1M NaCl, pH 5.0 buffer; then whole blood was added to determine the effect on clottability.

Rats = experiment: Indian ink spreading after subcutaneous injection in rats; format: in vivo, rat; details: heparin 250 to 2500 USP/ml with leech hyaluronidase
Protocol: Leech hyaluronidase (100 IU/ml) was mixed 1:1 with Indian ink in 20 mM MES, 0.1M NaCl pH 5.0, buffer in the presence or absence of heparin (250 to 2500 USP/ml). Rats were injected subcutaneously with 50 microlitres of this mixture and spreading allowed to occur over a period of 1 to 3 hours. The rats were sacrificed and the skin removed for observation of the area of spreading.

leech hyaluronidase [3] = experiment: Leech hyaluronidase activity with heparin, with and without hementin; format: biochemical; details: 60 min
Protocol: as §1
B) Leech hyaluronidase (75 IU/ml) was mixed with and without hementin (180 IU/ml) (where IU is defined as one microgram of fibrinogen incoagulated/min/37° C.) end incubated with heparin (1.5-1500 USP/ml) for one hour at 25° C. prior to addition to hyaluronic acid (2 mg/ml) and further incubation for one hour at 37° C. Reducing sugar levels were determined (see Example 1) and the results expressed as a percentage of controls containing no heparin. (Table 3).

[4] = Clotting time of patient plasma before and after heparinisation; format: in vivo, human; details: patient plasma after heparinisation with 30,000 USP/24 h; 40 seconds before
Protocol: B) Leech hyaluronidase (200 IU/ml) was preincubated for one hour at 25° C. with and without plasma and heparinised plasma in 20 mM MES, 0.1M NaCl, pH 5.0 buffer. Plasma was obtained from a patient before and after heparinisation with 30,000 USP/24 h resulting in an increase in the clotting time of 40 seconds to 80 seconds. Incubations were continued by addition to hyaluronic acid (see section A, above) and reducing sugars determined as above (Example 1).

[5] = system: mammalian testicular hyaluronidase; details: Mathews & Dorfman, Physiological Review, 35; cited from earlier work
leech hyaluronidase [6] = experiment: Leech hyaluronidase activity in the presence of tPA with and without heparin; format: biochemical; details: tPA range of concentrations; presence or absence of heparin 200 USP/ml; FIG. 5
Protocol: as §1
A) Leech hyaluronidase (68 IU/ml) was mixed with and without heparin (200 USP/ml) and human tissue plasminogen activator (tPA) in a range of concentrations ([…]) and with hyaluronic acid (5 mg/ml) and incubated for 1 h at 37° C. Reducing sugars were determined (Example 1) and results expressed as a percentage of controls containing no tPA.

## Heparin
Leech hyaluronidase [1]
  leech hyaluronidase activity, percentage of control incubations containing no heparin: no significant effect
[2]
  mammalian testicular hyaluronidase activity, percentage of controls without heparin: completely inhibited
Whole blood; Heparin 1.0 USP/ml, Leech Enzyme (50IU/ml)
  Whole Blood Clotting Time: 14.5 min
Whole blood; Heparin 1.0 USP/ml, without leech enzyme
  Whole Blood Clotting Time: 14.5 min
Whole blood; Heparin 2.5 USP/ml, Leech Enzyme (50IU/ml)
  Whole Blood Clotting Time: 24.5 min
Whole blood; Heparin 2.5 USP/ml, without leech enzyme
  Whole Blood Clotting Time: 24.0 min
Whole blood; Heparin 5 USP/ml, Leech Enzyme (50IU/ml)
  Whole Blood Clotting Time: NC (no clot formation before 20 minutes at 37° C.)
Whole blood; Heparin 5 USP/ml, without leech enzyme
  Whole Blood Clotting Time: NC (no clot formation before 20 minutes at 37° C.)
Whole blood; Heparin 10 USP/ml, Leech Enzyme (50IU/ml)
  Whole Blood Clotting Time: NC (no clot formation before 20 minutes at 37° C.)
Whole blood; Heparin 10 USP/ml, without leech enzyme
  Whole Blood Clotting Time: NC (no clot formation before 20 minutes at 37° C.)
Whole blood; Heparin 20 USP/ml, Leech Enzyme (50IU/ml)
  Whole Blood Clotting Time: NC (no clot formation before 20 minutes at 37° C.)
Whole blood; Heparin 20 USP/ml, without leech enzyme
  Whole Blood Clotting Time: NC (no clot formation before 20 minutes at 37° C.)
Rats
  effect of heparin on enzyme-induced ink spreading: not significantly affected
Leech hyaluronidase [3]; Heparin 1.5 USP/ml, With Hementin (180 IU/ml)
  leech hyaluronidase activity, % Control (no heparin): 103%
Leech hyaluronidase [3]; Heparin 1.5 USP/ml, Without Hementin
  leech hyaluronidase activity, % Control (no heparin): 97.5%
Leech hyaluronidase [3]; Heparin 15 USP/ml, With Hementin (180 IU/ml)
  leech hyaluronidase activity, % Control (no heparin): 93.8%
Leech hyaluronidase [3]; Heparin 15 USP/ml, Without Hementin
  leech hyaluronidase activity, % Control (no heparin): 100%
Leech hyaluronidase [3]; Heparin 150 USP/ml, With Hementin (180 IU/ml)
  leech hyaluronidase activity, % Control (no heparin): 100%
Leech hyaluronidase [3]; Heparin 150 USP/ml, Without Hementin
  leech hyaluronidase activity, % Control (no heparin): 103%
Leech hyaluronidase [3]; Heparin 1500 USP/ml, With Hementin (180 IU/ml)
  leech hyaluronidase activity, % Control (no heparin): 109%
Leech hyaluronidase [3]; Heparin 1500 USP/ml, Without Hementin
  leech hyaluronidase activity, % Control (no heparin): 103%
[4]
  clotting time: 80 s
[5]
  inhibition of mammalian testicular hyaluronidase by heparin: inhibited competitively

## tPA: human tissue plasminogen activator, a clot-lytic agent
Leech hyaluronidase [6]
  leech hyaluronidase activity, percentage of controls containing no tPA: no effect
